The IC50 is the concentration needed to halve the response being measured. One may read the logD as lipophilicity at a set pH, counting ionised and neutral species. A low value points to a more hydrophilic compound.

A value given as a limit tells only on which side of the number the result lay.

The species entered for one data set is Danio rerio. Nature of the data set: Toxicity in wild type zebrafish embryo assessed as mortality up to 30 uM treated 5 hrs after post fertilization measured 5 days after post fertilization by microscopy. The format is organism-based. The conditions noted are these: in vivo, 120 h.
Data set [1] concerns the target Glycogen synthase kinase-3 beta (Homo sapiens, UniProt P49841). Kind of data set: Inhibition of human recombinant GSK3beta.
For data set [2], the target named is Glycogen synthase kinase-3 alpha (Homo sapiens, UniProt P49840). Kind of data set: Inhibition of human recombinant GSK3alpha.
Sequence of Glycogen synthase kinase-3 alpha (P49840 whole entry): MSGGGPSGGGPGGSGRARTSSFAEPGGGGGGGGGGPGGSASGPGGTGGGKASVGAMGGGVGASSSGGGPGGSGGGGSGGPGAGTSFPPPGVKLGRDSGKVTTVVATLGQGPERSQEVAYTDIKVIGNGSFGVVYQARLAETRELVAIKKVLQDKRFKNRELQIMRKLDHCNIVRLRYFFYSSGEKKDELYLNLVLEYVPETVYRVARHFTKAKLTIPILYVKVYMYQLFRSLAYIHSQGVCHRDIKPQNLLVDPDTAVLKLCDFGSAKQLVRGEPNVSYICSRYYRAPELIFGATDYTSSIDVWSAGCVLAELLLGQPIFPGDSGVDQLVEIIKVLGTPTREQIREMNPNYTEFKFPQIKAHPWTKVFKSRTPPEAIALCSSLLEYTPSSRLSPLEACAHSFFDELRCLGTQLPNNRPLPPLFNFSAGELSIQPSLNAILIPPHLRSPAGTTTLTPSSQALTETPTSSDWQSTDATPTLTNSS
For the next data set, the system named is Liver microsomes. Nature of the data set: Metabolic stability in human liver microsomes after 60 mins by HPLC MS/ Mass spectroscopic analysis. The format is ADME, Microsome. To be noted: 1 h. (In general: Microsomes from liver hold many membrane-bound enzymes, among them those of drug oxidation.)
Data set [3] concerns the target Protein kinase C alpha type (Homo sapiens, UniProt P17252). Nature of the data set: Inhibition of human recombinant PKCalpha by FRET assay.
The nature of data set [4]: Aqueous solubility of the compound at 200 uM at pH 7.4 in phosphate buffer saline after 24 hrs by HPLC-UV/VIS spectroscopic analysis. Format: physicochemical. The conditions noted are these: pH 7.4, 24 h.
Data set [5] in a line: Octanol-phosphate buffer partition coefficient, log D of the compound at 100 uM at pH 7.4 after 60 mins by HPLC-UV/VIS spectroscopic analysis. The format is physicochemical.
For data set [6], the target named is Cyclin-dependent kinase 5/CDK5 activator 1 (Homo sapiens, UniProt Q00535). Nature of the data set: Inhibition of human recombinant CDK5/p35 by FRET assay. Format: protein-complex assay.
Sequence of Cyclin-dependent kinase 5/CDK5 activator 1 (Q00535 whole entry): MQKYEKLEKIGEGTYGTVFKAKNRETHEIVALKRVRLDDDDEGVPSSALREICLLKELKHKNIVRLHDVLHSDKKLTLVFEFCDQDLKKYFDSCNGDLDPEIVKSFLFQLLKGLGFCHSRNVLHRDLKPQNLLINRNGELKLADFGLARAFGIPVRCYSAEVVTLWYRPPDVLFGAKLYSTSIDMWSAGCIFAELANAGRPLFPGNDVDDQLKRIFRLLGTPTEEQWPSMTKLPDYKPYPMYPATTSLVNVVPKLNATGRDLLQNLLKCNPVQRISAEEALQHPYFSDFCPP
Sequence of Cyclin-dependent kinase 5/CDK5 activator 1 (Q15078 whole entry, further chain): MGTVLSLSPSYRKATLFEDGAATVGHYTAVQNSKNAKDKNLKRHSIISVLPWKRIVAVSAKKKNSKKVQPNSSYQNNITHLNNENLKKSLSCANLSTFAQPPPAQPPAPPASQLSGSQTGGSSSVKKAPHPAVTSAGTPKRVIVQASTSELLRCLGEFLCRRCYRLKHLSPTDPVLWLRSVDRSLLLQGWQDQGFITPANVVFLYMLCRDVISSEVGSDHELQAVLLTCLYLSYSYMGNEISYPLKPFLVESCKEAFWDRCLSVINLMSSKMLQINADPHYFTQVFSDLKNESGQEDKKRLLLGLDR
The subject of the next data set is Caco-2. Nature of the data set: Permeability from apical to basolateral side of human Caco2 cells at pH 6.5/7.4 after 60 mins by HPLC MS/ Mass spectroscopic analysis. To be noted: caco-2, pH 6.5, 1 h. The format is ADME, cell-based. A general note: Caco-2 monolayers are a common model of the intestinal barrier.
For a further data set, the target named is T1, Aurora kinase A (Homo sapiens, UniProt O14965).
T1 sequence (O14965 whole entry): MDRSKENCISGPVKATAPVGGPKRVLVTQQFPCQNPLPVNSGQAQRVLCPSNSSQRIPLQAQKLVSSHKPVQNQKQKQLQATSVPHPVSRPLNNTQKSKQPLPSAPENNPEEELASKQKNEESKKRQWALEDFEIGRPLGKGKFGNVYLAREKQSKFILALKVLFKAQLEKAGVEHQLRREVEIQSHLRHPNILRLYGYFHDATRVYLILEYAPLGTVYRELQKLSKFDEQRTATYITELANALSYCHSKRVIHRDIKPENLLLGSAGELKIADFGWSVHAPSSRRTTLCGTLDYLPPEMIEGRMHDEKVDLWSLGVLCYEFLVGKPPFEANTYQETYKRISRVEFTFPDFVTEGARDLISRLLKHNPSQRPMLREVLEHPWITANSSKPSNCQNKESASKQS
Nature of the data set: Inhibition of human recombinant AurKA by FRET assay.

Data set [7] deals with Casein kinase I isoform epsilon (Homo sapiens, UniProt P49674). Kind of data set: Inhibition of human recombinant CK1epsilon by FRET assay.
Sequence of Casein kinase I isoform epsilon (P49674 whole entry, canonical isoform): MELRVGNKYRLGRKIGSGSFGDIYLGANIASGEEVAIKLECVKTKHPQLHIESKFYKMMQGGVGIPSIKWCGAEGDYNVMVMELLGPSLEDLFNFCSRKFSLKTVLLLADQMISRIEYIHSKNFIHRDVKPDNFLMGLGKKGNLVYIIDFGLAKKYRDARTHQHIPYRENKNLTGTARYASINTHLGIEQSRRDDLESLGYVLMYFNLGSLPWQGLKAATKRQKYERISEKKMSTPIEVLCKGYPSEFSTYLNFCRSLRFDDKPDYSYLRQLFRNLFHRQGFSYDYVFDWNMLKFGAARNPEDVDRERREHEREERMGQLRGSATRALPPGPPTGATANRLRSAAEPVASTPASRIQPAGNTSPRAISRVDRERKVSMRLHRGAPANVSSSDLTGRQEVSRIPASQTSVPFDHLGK

Sequence of Glycogen synthase kinase-3 beta (P49841 whole entry): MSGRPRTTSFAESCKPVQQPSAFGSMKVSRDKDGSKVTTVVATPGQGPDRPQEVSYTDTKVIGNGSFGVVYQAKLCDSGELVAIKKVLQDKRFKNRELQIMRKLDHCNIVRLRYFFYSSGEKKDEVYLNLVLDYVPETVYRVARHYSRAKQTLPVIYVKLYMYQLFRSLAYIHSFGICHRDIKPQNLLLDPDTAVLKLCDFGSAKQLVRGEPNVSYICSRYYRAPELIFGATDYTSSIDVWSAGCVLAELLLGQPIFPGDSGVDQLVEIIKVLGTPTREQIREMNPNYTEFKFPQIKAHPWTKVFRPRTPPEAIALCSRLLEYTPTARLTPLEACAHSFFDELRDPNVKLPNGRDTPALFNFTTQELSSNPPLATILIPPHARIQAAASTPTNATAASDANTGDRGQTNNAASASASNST

On to `N#Cc1ccc(CSc2nnc(-c3ccncc3)o2)cc1`, for which the Activity entry in the data set listed under Danio rerio is “Non-toxic”. The concentration for half-maximal inhibition (IC50) in [1] was determined as 10 µM; in data set [2], 7.38 µM.

In the case of `N#Cc1ccc(-c2ccc(CSc3nnc(-c4ccc5c(c4)OCO5)o3)cc2)cc1`, in the data set on Liver microsomes, the Stability result is listed as “Stable”. For the same compound, the IC50 in data set [3] is above 100 µM; in data set [6], above 100 µM; on Aurora kinase A it was 30 µM; in [7] it was 60 µM. For the same compound, the Activity entry in the data set listed under Danio rerio is “Non-toxic”. In addition, the solubility result in data set [4] is listed as “Insoluble”. In addition, the logD at 1 h, 100 µM in data set [5] worked out at 3.58. Also, in the data set with Caco-2, the permeability entry was “impermeable”.

As to `N#Cc1cccc(CSc2nnc(-c3ccc4c(c3)OCO4)o2)c1`, the Activity entry in the data set filed under Danio rerio is listed as “Non-toxic”. The values for the IC50 in data set [1] and in data set [2] were 0.065 µM and 0.015 µM, respectively.

In the case of `N#Cc1ccc(CSc2nnc(-c3ccc4c(c3)OCO4)o2)cc1`, in the data set listed under Danio rerio, the Activity entry is recorded as “Non-toxic”. The IC50 was found to be 0.13 µM in data set [1] and 0.015 µM in data set [2].

Turning to `N#Cc1cccc(CSc2nnc(-c3ccc4c(c3)OCCO4)o2)c1`, the Activity result in the data set listed under Danio rerio is “Non-toxic”. Further, the concentration for half-maximal inhibition (IC50) is 0.086 µM in data set [1] and 0.095 µM in data set [2].

As for `N#Cc1ccc(CSc2nnc(-c3ccc4c(c3)OCCO4)o2)cc1`, in the data set filed under Danio rerio, the Activity result is “Non-toxic”. For the same compound, the IC50 in data set [1] came out at 0.166 µM; in data set [2] it was 0.045 µM.

Regarding `COC(=O)c1ccc(CSc2nnc(-c3ccc4c(c3)OCCO4)o2)cc1`, the IC50 (in [3]; in [6]; on Aurora kinase A; in data set [7]) was above 100 µM in each case. Also, the Activity result in the data set filed under Danio rerio is “Non-toxic”.

Regarding `N#Cc1cccc(CSc2nnc(-c3ccncc3)o2)c1`, in the data set filed under Danio rerio, the Activity entry is listed as “Non-toxic”. Besides, the IC50 in data set [1] was determined as 3.16 µM; in [2], 3.21 µM.

For `c1cc(-c2nnn[nH]2)ccc1CSc1nnc(-c2ccc3c(c2)OCO3)o1`, in the data set filed under Danio rerio, the Activity entry is “Non-toxic”. In addition, the IC50 came to 0.172 µM in data set [1] and 0.107 µM in data set [2].

For `COC(=O)c1ccc(CSc2nnc(-c3ccc4c(c3)OCO4)o2)cc1`, the Activity entry in the data set filed under Danio rerio is given as “Non-toxic”.

For `O=C(O)c1ccc(CSc2nnc(-c3ccc4c(c3)OCO4)o2)cc1`, the Activity entry in the data set filed under Danio rerio is given as “Non-toxic”.

`CC(C)CNC(=O)c1ccc(CSc2nnc(-c3ccc4c(c3)OCO4)o2)cc1`: the Activity entry in the data set listed under Danio rerio was “Non-toxic”.

In the case of `COC(CNC(=O)c1ccc(CSc2nnc(-c3ccc4c(c3)OCO4)o2)cc1)OC`, the Activity result in the data set listed under Danio rerio is recorded as “Non-toxic”.

For the compound `O=C(O)c1ccc(CSc2nnc(-c3ccc4c(c3)OCCO4)o2)cc1`, the Activity entry in the data set listed under Danio rerio is given as “Non-toxic”.

In the case of `CC(C)CNC(=O)c1ccc(CSc2nnc(-c3ccc4c(c3)OCCO4)o2)cc1`, in the data set filed under Danio rerio, the Activity entry is on record as “Non-toxic”.

Regarding `COC(CNC(=O)c1ccc(CSc2nnc(-c3ccc4c(c3)OCCO4)o2)cc1)OC`, the Activity entry in the data set filed under Danio rerio is listed as “Non-toxic”.

For `O=C(NCc1ccccc1)c1ccc(CSc2nnc(-c3ccc4c(c3)OCCO4)o2)cc1`, the Activity entry in the data set listed under Danio rerio is reported as “Non-toxic”.

As for `c1ccc(-c2ccc(CSc3nnc(-c4ccc5c(c4)OCO5)o3)cc2)cc1`, the IC50 in data set [3] is above 100 µM; in data set [6], above 100 µM; in [1] it was 0.176 µM; on Aurora kinase A, above 100 µM; in [2], 0.009 µM; in data set [7], above 100 µM. Also, the Activity result in the data set listed under Danio rerio is given as “Non-toxic”.

With `N#Cc1cc(F)ccc1-c1ccc(CSc2nnc(-c3ccc4c(c3)OCO4)o2)cc1`, the IC50 is above 100 µM in data set [3]; above 100 µM in data set [6]; 0.022 µM in [1]; 30 µM on Aurora kinase A; 0.003 µM in [2]; 20 µM in [7]. Moreover, the Activity result in the data set filed under Danio rerio is “Non-toxic”.

With `N#Cc1ccccc1-c1ccc(CSc2nnc(-c3ccc4c(c3)OCO4)o2)cc1`, the IC50 in [3] is above 100 µM; in data set [6] it was above 100 µM; in [1] it was 0.039 µM; at Aurora kinase A it was above 100 µM; in data set [2] it was below 0.005 µM; in [7] it was above 100 µM. The Activity result in the data set filed under Danio rerio is “Non-toxic”.

As to `N#Cc1ccccc1-c1ccc(CSc2nnc(-c3ccc4c(c3)OCCO4)o2)cc1`, the IC50 is above 100 µM in [3]; above 100 µM in data set [6]; below 0.005 µM in [1]; above 100 µM at Aurora kinase A; below 0.005 µM in data set [2]; above 100 µM in [7]. For the same compound, the Activity result in the data set listed under Danio rerio is “Non-toxic”.

In the case of `N#Cc1cc(F)ccc1-c1ccc(CSc2nnc(-c3ccc4c(c3)OCCO4)o2)cc1`, the IC50 in [3] was above 100 µM; in data set [6], above 100 µM; at Aurora kinase A it was 5 µM; in [7] it was above 100 µM. Also, the Activity result in the data set listed under Danio rerio is “Non-toxic”.

On to `N#Cc1ccccc1-c1ccc(CSc2nnc(-c3ccncc3)o2)cc1`, for which the 50% inhibitory concentration (IC50) in data set [3] was above 100 µM; in data set [6], above 100 µM; in [1] it was 0.041 µM; on Aurora kinase A, above 100 µM; in data set [2], 0.019 µM; in data set [7], above 100 µM. Besides, the Activity entry in the data set filed under Danio rerio is reported as “Non-toxic”.

Take `COC[C@@H]1COc2ccc(-c3nnc(SCc4ccc(-c5ccccc5C#N)cc4)o3)cc2O1`: the half-inhibitory concentration (IC50) in data set [3] is above 100 µM; in data set [6], above 100 µM; in [1] it was 0.758 µM; at Aurora kinase A, above 100 µM; in [2], 0.195 µM; in data set [7], above 100 µM. The Activity result in the data set filed under Danio rerio was “Non-toxic”.

On to `COC[C@H]1COc2ccc(-c3nnc(SCc4ccc(-c5ccccc5C#N)cc4)o3)cc2O1`, for which the IC50 in data set [3] is above 100 µM; in data set [6], above 100 µM; in [1] it was 0.129 µM; on Aurora kinase A, above 100 µM; in [2], 0.015 µM; in data set [7] it was above 100 µM. Further, the Activity result in the data set filed under Danio rerio was “Non-toxic”.

Regarding `Ic1cccc(CSc2nnc(-c3ccncc3)o2)c1`, the Activity result in the data set listed under Danio rerio is “Non-toxic”. Further, the IC50 in data set [2] amounted to 0.39 µM.

Regarding `c1ccc(CSc2nnc(-c3ccncc3)o2)cc1`, the Activity result in the data set listed under Danio rerio is “Non-toxic”. Also, the IC50 amounted to 1.32 µM in [1] and 2.24 µM in data set [2].

For the compound `COCC1COc2ccc(-c3nnc(SCc4ccc(-c5ccccc5C#N)cc4)o3)cc2O1` (racemic), the IC50 in data set [3] is above 100 µM; in data set [6] it was above 100 µM; in data set [1], 0.233 µM; at Aurora kinase A it was 30 µM; in data set [2], 0.054 µM; in data set [7], above 100 µM. In the data set filed under Danio rerio, the Activity result is “Non-toxic”.

Source of the values: ChEMBL document CHEMBL2062370, “Identification of glycogen synthase kinase-3 inhibitors with a selective sting for glycogen synthase kinase-3α” (J Med Chem, 2012).
